A short description of the data set: in vitro. As to conditions: human, hela cells, % viability.

On to `COc1ccc(-c2cnccc2-n2ccnc2)cn1` [CBK177147], for which the viability at 28.5 h, 10 µM was found to be 113%.
Take `O=C(CSc1ncn(-c2ccccc2)n1)Nc1ccccc1Cl` [CBK265593]: the viability at 28.5 h, 10 µM stood at 104%.
On to `O=C(COC(=O)c1cc(S(=O)(=O)N2CCCCC2)ccc1Cl)c1ccccc1` [CBK261657], for which the viability at 28.5 h, 10 µM turned out to be 86%.
With `c1cnc2[nH]c(C3CCCC3)c(CN3CCOCC3)c2c1` [CBK285337], the viability at 28.5 h, 10 µM stood at 77.5%.
Still for that read-out and setting: next, `O=C(c1ccccc1)n1c(=S)nc2n(c1=S)CCN2` [CBK021794]: 84.3%; `Cn1c(SCCN2CCOCC2)nnc1-c1cccs1` [CBK010243]: 89.3%.
As for `COc1ccc(-c2cn(-c3cccc(NC(C)=O)c3)nn2)cc1` [CBK113008], the viability at 28.5 h, 10 µM amounted to 97.2%.
As to `COc1cc(/C=C2\C(=O)NC(=S)N(c3cccc(C)c3C)C2=O)ccc1OC(C)C(=O)O` (stereo not drawn) [CBK265132], the viability at 28.5 h, 10 µM (bulk resorufin, single well) is 98.7%.
With `CCN(CC1CCOCC1)C(=O)Cn1c(C)cc(=O)c2ccccc21` [CBK307230], the viability at 28.5 h, 10 µM stood at 88.7%.
As for `CSCCN1CCC(Oc2nccnc2OCc2cccnc2)CC1` [CBK083173], the viability at 28.5 h, 10 µM was 90.3%.
The same measure, in the same setting: the same measure for `O=c1[nH]c2ncc(-c3ccc(OC(F)(F)F)cc3)nc2n1Cc1ccc(Cl)cc1` [CBK064409]: 103%.
Same read-out and setting: next, `CNC(=O)CSc1nc2cc(Cl)ccc2c(=O)n1CC1CCCO1` (stereo not drawn) [CBK305937]: 86.9%; `CCOC(=O)c1cccc(NC(=O)CSc2nc3cccnc3[nH]2)c1` [CBK269354]: 95.1%.
The same measure, in the same setting: the same measure for `CCN1CCN(c2ccc3nnc(C(C)C)n3n2)CC1` [CBK287974]: 88.3%; for `CCOCc1c(O)ccc2c([N+](=O)[O-])c(C)n(-c3ccc(OC)cc3)c12` [CBK095589]: 87.8%; for `CCn1c2cc(C)oc2c2cnn(CC(=O)N3CCCCC3)c(=O)c21` [CBK284220]: 90.2%.
Turning to `N#Cc1ccc(Oc2cccc(C(F)(F)F)c2)c(F)c1` [CBK002801], the viability at 28.5 h, 10 µM was 88.3%.
As for `CS(=O)(=O)N(CC(=O)O)Cc1ccccc1` [CBK265805], the viability at 28.5 h, 10 µM amounted to 90.1%.
With `CC(C)OC(=O)c1nnn(-c2nonc2N)c1CN1CCCCCC1` [CBK027601], the viability at 28.5 h, 10 µM turned out to be 94%.
The same measure, in the same setting: the same measure for `COc1ccc(-c2cc(C(=O)O)nn2C2CCS(=O)(=O)C2)cc1` (stereo not drawn) [CBK286990]: 87.8%; for `COCc1cc(C)nc(NCCO)c1C#N` [CBK262556]: 96.6%; for `Cc1ccc(Cl)cc1N(CC(=O)O)S(=O)(=O)c1ccccc1` [CBK262424]: 93%.
On the same count and under the same terms, next, `CS(=O)(=O)N1CC2CCCC(O)(c3cccc(F)c3)C2C1` (stereo not drawn) [CBK283107]: 97.3%; `Cc1cc2cn([C@@H]3O[C@H](CO)[C@H](O)C3O)c(=O)nc2[nH]1` (stereo partly drawn) [CBK201219]: 98%.
As for `NC(=O)c1ccccc1-c1cnc(N)c(-c2ccc(O)cc2)n1` [CBK115536], the viability at 28.5 h, 10 µM was determined as 89.4%.
On the same count and under the same terms, the same measure for `Cc1c(Cl)cccc1NC(=O)C(=O)NCCCN1CCOCC1` [CBK263276]: 109%.
On to `NC1=NNC2=C(c3ccc(F)cc3)NNN12` [CBK093659], for which the viability at 28.5 h, 10 µM stood at 86%.
As for `Cn1cccc1-c1cc(C(=O)N/N=C/c2cccc(O)c2)[nH]n1` [CBK263397], the viability at 28.5 h, 10 µM was 89.9%.
Same read-out and setting: the same measure for `Cc1nn(C)cc1S(=O)(=O)NCC1(c2ccccc2)CCCC1` [CBK282766]: 85.9%.
The same measure, in the same setting: the same measure for `Cc1nnc2n1-c1ccccc1SC(c1ccccc1)C2` (stereo not drawn) [CBK016040]: 92.9%; for `COc1ccc(S(=O)(=O)NCCNC(=O)c2cc(-c3cccc(S(C)(=O)=O)c3)cnc2NCC2CC2)cc1` [CBK076425]: 94.6%.
On to `CCc1cc(NC[C@@H](O)CO)nc(-c2ccc(F)c(Cl)c2)n1` [CBK132880], for which the viability at 28.5 h, 10 µM came out at 74.4%.
The same measure, in the same setting: next, `COc1ccc(-c2ccccc2NC(=O)c2cc(-n3cccn3)ccc2Cl)cc1` [CBK285634]: 91.3%; `CC(O)CNc1nccnc1-c1cccc(CO)c1` (stereo not drawn) [CBK037056]: 91.5%; `COc1ccc(NC(=O)C2C3CCC(C3)C2C(=O)O)cc1OC` (stereo not drawn) [CBK263684]: 95.3%.
Still for that read-out and setting: the same measure for `Cc1ccc(SCC(=O)Nc2cc([N+](=O)[O-])ccc2O)cc1` [CBK268655]: 123%; for `COc1ccc2c(c1)C1(CC(=O)N(Cc3cccnc3)C1=O)C(=O)N2C` (stereo not drawn) [CBK075236]: 103%.
Still for that read-out and setting: the same measure for `Nc1ncnc2c1c(I)cn2[C@@H]1O[C@H](CO)[C@H](O)C1O` (stereo partly drawn) [CBK201321]: 16.5%.
Take `COC(=O)c1ccsc1NS(=O)(=O)c1cc(Cl)sc1Cl` [CBK039062]: the viability at 28.5 h, 10 µM was 88.2%.
Still for that read-out and setting: next, `O=C(Nc1ccc2ncccc2c1)c1ccc(F)c(F)c1` [CBK159810]: 78.5%.
On to `CN(CCN1CCCCC1)C(=O)C1CC(=O)Nc2ccccc21` (stereo not drawn) [CBK282729], for which the viability at 28.5 h, 10 µM stood at 105%.
With `CC1CCCC(C)N1CC(O)COc1ccc(/N=C/c2ccccc2O)cc1` (stereo not drawn) [CBK261748], the viability at 28.5 h, 10 µM is 89.6%.
In the case of `CCCCCc1c(C)nc(-c2ccccn2)nc1O` [CBK017441], the viability at 28.5 h, 10 µM turned out to be 86.4%.
As to `Cc1cc(Cc2ccc(Cl)cc2)cc(C2CCN(C(=O)Cc3csc(C)n3)CC2)n1` [CBK286526], the viability at 28.5 h, 10 µM stood at 88.5%.
Consider `Cc1cc(Cl)cc(Cl)c1S(=O)(=O)Nc1cccc(C(=O)O)c1` [CBK155682], for which the viability at 28.5 h, 10 µM turned out to be 93%.
In the case of `Cc1ccccc1Nc1nc(N)nc(CN2CCCC(C(F)(F)F)C2)n1` (stereo not drawn) [CBK305073], the viability at 28.5 h, 10 µM stood at 105%.
Same read-out and setting: next, `Cc1ccccc1-n1sc(=O)n(Cc2ccc(F)cc2)c1=O` [CBK113605]: 101%.
With `Cc1cc(/C=C2\NC(=O)NC2=O)c(C)n1-c1ccc(OCc2ccccc2F)cc1` [CBK264842], the viability at 28.5 h, 10 µM turned out to be 88.3%.
Take `c1csc(-c2nn3c(Cn4cnc5ccccc54)nnc3s2)c1` [CBK268262]: the viability at 28.5 h, 10 µM turned out to be 87.9%.
For the compound `Cc1ncc(CN(CCN(C)C)Cc2cccs2)n1C` [CBK282993], the viability at 28.5 h, 10 µM was 93.4%.
For the compound `C/C(=N\NC(N)=S)C(=O)O` [CBK261575], the viability at 28.5 h, 10 µM was determined as 102%.
Take `O=C(NCCN1CCOCC1)NC(=O)c1ccc(Cl)cc1` [CBK269446]: the viability at 28.5 h, 10 µM was 88.2%.
On to `CCOC(=O)C1CCCN(Cc2cc(F)cc(C(C)=O)c2O)C1` (stereo not drawn) [CBK304020], for which the viability at 28.5 h, 10 µM worked out at 87.1%.
Regarding `O=C(O)COc1cccc2ccccc12` [CBK218704], the viability at 28.5 h, 10 µM was found to be 106%.
Still for that read-out and setting: the same measure for `COc1cccc2c(C(C(=O)O)N3CCN(c4ccc(C(F)(F)F)cn4)CC3)c[nH]c12` (stereo not drawn) [CBK286857]: 89.7%.
Regarding `CC(C)Nc1nccnc1Sc1cccc2ccccc12` [CBK089493], the viability at 28.5 h, 10 µM was 100%.
Take `Cc1ccc(C(=O)N(Cc2ccncc2)C2CCCCC2)cc1C` [CBK085386]: the viability at 28.5 h, 10 µM amounted to 97.9%.
Consider `O=C(c1cscn1)N1C2CCC1CC(O)(c1ccco1)C2` (stereo not drawn) [CBK284135], for which the viability at 28.5 h, 10 µM was 105%.
Regarding `Cc1ccc(CC(=O)N2CCCCC2c2ncc(-c3cccc(F)c3)[nH]2)cn1` (stereo not drawn) [CBK291152], the viability at 28.5 h, 10 µM was found to be 98%.
The same measure, in the same setting: next, `CC(C(=O)NC1(C#N)CCCCC1)N1CCOC(Cn2cccn2)C1` (stereo not drawn) [CBK305337]: 88.9%; `CN(C)CCCN(Cc1cnn(C)c1)Cc1ccco1` [CBK283039]: 112%.
In the case of `COc1ccccc1-c1ccc(NC(=O)c2ccc3c(c2)ncn3C)cc1` [CBK285652], the viability at 28.5 h, 10 µM is 103%.
Turning to `COc1cccc2c(O)cnnc12` [CBK026139], the viability at 28.5 h, 10 µM was 87.2%.
Regarding `CCN1CC2(CCN(Cc3cccc(-c4ccccn4)c3)CC2)CC1=O` [CBK307399], the viability at 28.5 h, 10 µM came to 107%.
`CC(=O)Nc1ccc(S(=O)(=O)NC2(C(F)(F)F)C(=O)Nc3c2c(=O)[nH]c(=S)n3Cc2ccco2)cc1` (stereo not drawn) [CBK268395]: the viability at 28.5 h, 10 µM amounted to 96.8%.
`COc1ccc(-c2cc(=O)[nH]c(=S)s2)cc1` [CBK288355]: the viability at 28.5 h, 10 µM came to 90.5%.
Turning to `O=C(c1cccs1)N1CCCC1c1nc2ccccc2[nH]1` (stereo not drawn) [CBK284006], the viability at 28.5 h, 10 µM was 81.8%.
Turning to `CC(C)c1ccccc1OCC(=O)N1CCCc2c(cnn2C)C1` [CBK285287], the viability at 28.5 h, 10 µM is 111%.
With `CC(C)(N)C(=O)N1CC(C(=O)N2CC3(CCN(S(C)(=O)=O)CC3)c3ccccc32)C(c2cc3ccccc3o2)C1` (stereo not drawn) [CBK136734T], the viability at 28.5 h, 10 µM amounted to 117%.
In the case of `O=C(/C=C\c1cn(-c2ccccc2)nc1-c1cccc([N+](=O)[O-])c1)n1nnc2ccccc21` [CBK265273], the viability at 28.5 h, 10 µM came out at 104%.
The same measure, in the same setting: the same measure for `O=C(COC(=O)c1ccc(Cl)c(Cl)c1)c1ccc(Oc2ccc([N+](=O)[O-])cc2)cc1` [CBK264821]: 117%.
In the case of `C[C@@H](NC(=O)CCN1C(=O)[C@@H]2Cc3ccccc3CN2C1=O)C(=O)O` [CBK286709], the viability at 28.5 h, 10 µM came to 93.7%.
On the same count and under the same terms, the same measure for `CCc1csc(CCNc2ccc(-c3nc(C4CC4)no3)cn2)n1` [CBK306608]: 91.3%; for `COc1ccc(CCN[C@H]2CCC[C@@H]2O)cc1OC` [CBK005354G]: 78.4%; for `Cc1cc(C)n(-c2nc3cc(Cl)ccc3nc2NCc2ccc3c(c2)OCO3)n1` [CBK268482]: 106%.
Still for that read-out and setting: next, `Cn1c(SCC(=O)Nc2ccc(F)cc2)nnc1-c1cccnc1` [CBK267035]: 94.7%; `CC(C)Oc1cc(Br)cc(C(=O)N2CCC(C(=O)O)C2)c1` (stereo not drawn) [CBK304268C]: 92.6%; `Cc1ccnc(N2CCOC3(CCCC3)C2)n1` [CBK304794]: 93.1%.
With `Cc1nc2ccc(C(=O)N(C)CCN3CCCCC3)cc2s1` [CBK281919], the viability at 28.5 h, 10 µM was found to be 93.4%.
The same measure, in the same setting: the same measure for `CC(=O)C(CC(=O)O)C1=C(O)CC(C)(C)CC1=O` (stereo not drawn) [CBK287127]: 91.5%; for `O=C(CCSc1ccc([N+](=O)[O-])cc1Cl)Nc1ccc(Br)c2cccnc12` [CBK266407]: 86.7%.

A word on the viability: it is a read-out of living cells in per cent, often relative to untreated cells.

For the origin of these results see article PMC12040169 (PLOS Biology, 2025).
